Measurements reported in patent US20190284168A1, “PYRAZOLE DERIVATIES AS SGC STIMULATORS” (IRONWOOD PHARMACEUTICALS, INC., priority 2014, published 2019).

target: T1, sGC enzyme (Homo sapiens, UniProt Q02108+Q02153); assay: cGMP GloSensor cell-based assay, 384-well format; conditions: read-out: sGC_HEK_GloSensor EC50/IC50 Abs (Norm) (nM) Binned (~)
T1 construct: host or cells: HEK293 cells expressing GloSensor 40F cGMP
T1 sequence (Q02153 1-619): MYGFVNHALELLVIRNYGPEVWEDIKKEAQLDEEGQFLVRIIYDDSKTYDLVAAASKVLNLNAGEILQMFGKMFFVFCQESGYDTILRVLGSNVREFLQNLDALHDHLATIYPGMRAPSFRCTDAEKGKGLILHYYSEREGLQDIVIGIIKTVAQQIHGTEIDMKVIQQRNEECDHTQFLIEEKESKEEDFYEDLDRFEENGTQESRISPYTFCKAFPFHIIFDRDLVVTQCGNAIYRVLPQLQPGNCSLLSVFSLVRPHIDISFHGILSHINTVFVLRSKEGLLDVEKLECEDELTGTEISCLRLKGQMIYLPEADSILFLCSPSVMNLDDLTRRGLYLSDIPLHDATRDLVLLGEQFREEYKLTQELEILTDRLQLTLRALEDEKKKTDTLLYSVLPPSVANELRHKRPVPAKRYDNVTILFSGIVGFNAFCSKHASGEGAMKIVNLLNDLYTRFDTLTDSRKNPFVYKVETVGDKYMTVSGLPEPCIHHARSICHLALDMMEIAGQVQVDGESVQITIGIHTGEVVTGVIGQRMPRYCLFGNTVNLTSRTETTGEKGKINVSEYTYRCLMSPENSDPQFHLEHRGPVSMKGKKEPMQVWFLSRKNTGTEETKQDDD
T1 sequence (Q02108 1-690): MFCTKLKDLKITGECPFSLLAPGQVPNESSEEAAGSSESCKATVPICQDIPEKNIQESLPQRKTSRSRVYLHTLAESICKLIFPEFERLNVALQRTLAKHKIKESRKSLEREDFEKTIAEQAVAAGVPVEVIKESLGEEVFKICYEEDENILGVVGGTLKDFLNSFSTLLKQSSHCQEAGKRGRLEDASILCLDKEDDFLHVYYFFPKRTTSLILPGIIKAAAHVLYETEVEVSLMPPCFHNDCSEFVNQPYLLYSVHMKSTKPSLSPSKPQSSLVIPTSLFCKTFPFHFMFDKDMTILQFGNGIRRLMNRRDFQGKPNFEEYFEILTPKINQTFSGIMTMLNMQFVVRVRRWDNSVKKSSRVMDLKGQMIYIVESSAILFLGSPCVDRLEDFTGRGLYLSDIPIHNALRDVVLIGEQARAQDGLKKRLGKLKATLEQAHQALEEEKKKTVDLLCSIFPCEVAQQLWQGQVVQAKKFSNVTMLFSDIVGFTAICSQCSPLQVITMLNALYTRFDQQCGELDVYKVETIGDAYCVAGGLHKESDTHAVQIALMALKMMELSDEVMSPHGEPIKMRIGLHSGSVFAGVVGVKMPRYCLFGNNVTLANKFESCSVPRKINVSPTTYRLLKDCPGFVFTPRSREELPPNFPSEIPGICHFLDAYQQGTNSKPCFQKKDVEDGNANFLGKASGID
Source text: Human embryonic kidney cells (HEK293) cells expressing GloSensor™ 40F cGMP (Part No: CS182801, Promega) were used to evaluate the activity of test compounds. The luminescent biosensors (engineered luciferase) that were incorporated into these cells detect cGMP formed by the compounds stimulating the sGC enzyme and emit luminescence.
cGMP GloSensor cells were maintained in Dulbecco's Modification of Eagle's Medium (DMEM) supplemented with fetal bovine serum (FBS) (10% final) and hygromycine (200 ug/ml). The day before assay, cells were plated in DMEM with 10% FBS in a 50 μL volume at a density of 1.5×10^4 cells/well in a poly-D-lysine coated 384-well flat white-bottom plate (Corning Cat No 35661). Cells were incubated overnight at 37° C. in a humidified chamber with 5% CO2. The next day, medium was removed and cells were replaced with 40 ul/well of GloSensor™, 2 mM (Promega Cat No E1291). Cells were treated for 90 minutes at 25° C. to allow the substrate to equilibrate in the cells. Test compounds and Diethylenetriamine NONOate (DETA-NONOate) was diluted to 3 mM (20×) in serum-free CO2 independent medium and serially diluted at 4× dilutions to create 5× dose curve from which 10 ul was added to the wells (x μM concentration for test compound solution and 10 μM concentration for DETA-NONOate solution; wherein x is one of the following final concentrations). • 30000 nM • 7500 nM • 1875 nM • 468.75 nM • 117.19 nM • 29.29 nM • 7.32 nM • 1.83 nM • 0.46 nM • 0.114 nM • 0.029 nM
For the kinetics studies, luminescense was measured right away for 0.2 sec per well with Envision (Perkin Elmer model No). For endpoint SAR screening, data were collected after 55 min incubation at room temperature.
Data analysis was carried out as indicated above in Example 2A.

Structure (SMILES)	EC50
O[C@@H]1CN(c2nc(-c3cc(-c4ccon4)n(Cc4ccccc4F)n3)ncc2F)C[C@H]1O (racemic) [Compound 167, trans-1-(5-fluoro-2-(1-(2-fluorobenzyl)-5-(isoxazol-3-yl)-1H-pyrazol-3-yl)pyrimidin-4-yl)pyrrolidine-3,4-diol]	< 100 nM
O=c1[nH]c(-c2cc(-c3ccsn3)n(Cc3ccccc3F)n2)ncc1F [Compound 111]	< 100 nM
O=c1[nH]c(-c2cc(-c3ccon3)n(CCC(F)(F)C(F)(F)F)n2)ncc1F [Compound 128, 5-fluoro-2-(5-(isoxazol-3-yl)-1-(3,3,4,4,4-pentafluorobutyl)-1H-pyrazol-3-yl)pyrimidin-4(3H)-one]	> 1000 nM
CC(C)(C)OC(=O)C[C@H]1C[C@@H](CCNc2nc(-c3cc(-c4ccon4)n(Cc4ccccc4F)n3)ncc2F)OC(C)(C)O1 [Compound 132]	< 100 nM
O=C1C[C@H](O)C[C@@H](CCNc2nc(-c3cc(-c4ccon4)n(Cc4ccccc4F)n3)ncc2F)O1 [Compound 133, (4R,6R)-6-(2-((5-fluoro-2-(1-(2-fluorobenzyl)-5-(isoxazol-3-yl)-1H-pyrazol-3-yl)pyrimidin-4-yl)amino)ethyl)-4-hydroxytetrahydro-2H-pyran-2-one]	< 100 nM
O=C(O)C[C@H](O)C[C@H](O)CCNc1nc(-c2cc(-c3ccon3)n(Cc3ccccc3F)n2)ncc1F [Compound 134, (3R,5R)-7-((5-fluoro-2-(1-(2-fluorobenzyl)-5-(isoxazol-3-yl)-1H-pyrazol-3-yl)pyrimidin-4-yl)amino)-3,5-dihydroxyheptanoic acid]	100 to 1000 nM
OC(CNc1nc(-c2cc(-c3ncco3)n(Cc3ccccc3F)n2)ncc1F)(C(F)(F)F)C(F)(F)F [Compound 141]	100 to 1000 nM
Fc1cnc(-c2cc(-c3ccon3)n(Cc3cccc(F)c3F)n2)nc1 [Compound 142]	> 1000 nM
Oc1nc(-c2cc(-c3ccon3)n(Cc3ncccc3F)n2)ncc1F [Compound 143, 5-fluoro-2-(1-((3-fluoropyridin-2-yl)methyl)-5-(isoxazol-3-yl)-1H-pyrazol-3-yl)pyrimidin-4(3H)-one]	> 1000 nM
Fc1cnc(-c2cc(-c3ccon3)n(Cc3ncccc3F)n2)nc1 [Compound 144]	> 1000 nM
Nc1ccnc(-c2cc(-c3ccon3)n(Cc3ncccc3F)n2)n1 [Compound 145]	> 1000 nM
Nc1nc(-c2cc(-c3ccon3)n(Cc3ncccc3F)n2)ncc1F [Compound 146]	100 to 1000 nM
CN(CC(O)c1ccc(O)c(O)c1)c1nc(-c2cc(-c3ccon3)n(Cc3ccccc3F)n2)ncc1F (stereo not drawn) [Compound 168, 4-(2-((5-fluoro-2-(1-(2-fluorobenzyl)-5-(isoxazol-3-yl)-1H-pyrazol-3-yl)pyrimidin-4-yl)(methyl)amino)-1-hydroxyethyl)benzene-1,2-diol]	< 100 nM
O[C@@H]1CN(c2nc(-c3cc(-c4ccon4)n(Cc4ccccc4F)n3)ncc2F)C[C@@H]1O [Compound 169, cis-1-(5-fluoro-2-(1-(2-fluorobenzyl)-5-(isoxazol-3-yl)-1H-pyrazol-3-yl)pyrimidin-4-yl)pyrrolidine-3,4-diol]	< 100 nM
OCCN1CCN(c2nc(-c3cc(-c4ccon4)n(Cc4ccccc4F)n3)ncc2F)CC1 [Compound 170, 2-(4-(5-fluoro-2-(1-(2-fluorobenzyl)-5-(isoxazol-3-yl)-1H-pyrazol-3-yl)pyrimidin-4-yl)piperazin-1-yl)ethanol]	< 100 nM
COC(=O)C1CCN(c2nc(-c3cc(-c4ccon4)n(Cc4ccccc4F)n3)ncc2F)CC1 [Compound 171, methyl 1-(5-fluoro-2-(1-(2-fluorobenzyl)-5-(isoxazol-3-yl)-1H-pyrazol-3-yl)pyrimidin-4-yl)piperidine-4-carboxylate]	< 100 nM
COC(=O)CCN(C)c1nc(-c2cc(-c3ccon3)n(Cc3ccccc3F)n2)ncc1F [Compound 172, methyl 3-((5-fluoro-2-(1-(2-fluorobenzyl)-5-(isoxazol-3-yl)-1H-pyrazol-3-yl)pyrimidin-4-yl)(methyl)amino)propanoate]	< 100 nM

Structure (SMILES)	EC50
NCC(=O)OC1CCN(c2nc(-c3cc(-c4ccon4)n(Cc4ccccc4F)n3)ncc2F)CC1 [Compound 173, 1-(5-fluoro-2-(1-(2-fluorobenzyl)-5-(isoxazol-3-yl)-1H-pyrazol-3-yl)pyrimidin-4-yl)piperidin-4-yl 2-aminoacetate]	< 100 nM
COC(=O)CCCNc1nc(-c2cc(-c3ccon3)n(Cc3ccccc3F)n2)ncc1F [Compound 174, methyl 4-((5-fluoro-2-(1-(2-fluorobenzyl)-5-(isoxazol-3-yl)-1H-pyrazol-3-yl)pyrimidin-4-yl)amino)butanoate]	< 100 nM
COC(=O)CCCCNc1nc(-c2cc(-c3ccon3)n(Cc3ccccc3F)n2)ncc1F [Compound 175, methyl 5-((5-fluoro-2-(1-(2-fluorobenzyl)-5-(isoxazol-3-yl)-1H-pyrazol-3-yl)pyrimidin-4-yl)amino)pentanoate]	< 100 nM
OCCCCNc1nc(-c2cc(-c3ccon3)n(Cc3ccccc3F)n2)ncc1F [Compound 176, 4-((5-fluoro-2-(1-(2-fluorobenzyl)-5-(isoxazol-3-yl)-1H-pyrazol-3-yl)pyrimidin-4-yl)amino)butan-1-ol]	< 100 nM
NCC(=O)OCCCNc1nc(-c2cc(-c3ccon3)n(Cc3ccccc3F)n2)ncc1F [Compound 177, 3-((5-fluoro-2-(1-(2-fluorobenzyl)-5-(isoxazol-3-yl)-1H-pyrazol-3-yl)pyrimidin-4-yl)amino)propyl 2-aminoacetate]	< 100 nM
NCC(=O)OCCCCNc1nc(-c2cc(-c3ccon3)n(Cc3ccccc3F)n2)ncc1F [Compound 178, 4-((5-fluoro-2-(1-(2-fluorobenzyl)-5-(isoxazol-3-yl)-1H-pyrazol-3-yl)pyrimidin-4-yl)amino)butyl 2-aminoacetate]	< 100 nM
Cc1ccc(Cn2nc(-c3ncc(F)c(O)n3)cc2-c2ccon2)cc1 [Compound 185]	< 100 nM
Cn1cc(Cn2nc(-c3ncc(F)c(O)n3)cc2-c2ccon2)cn1 [Compound 186]	> 1000 nM
Cc1ccc(Cn2nc(-c3ncc(F)c(O)n3)cc2-c2ccon2)cc1F [Compound 188]	< 100 nM
Oc1nc(-c2cc(-c3ccon3)n(Cc3cccnc3)n2)ncc1F [Compound 189]	> 1000 nM
Cc1cc(Cn2nc(-c3ncc(F)c(O)n3)cc2-c2ccon2)on1 [Compound 190]	100 to 1000 nM
CCOC(=O)C(C)(C)c1nnc(-c2cc(-c3ccon3)n(Cc3ccccc3F)n2)nc1O [Compound 191]	100 to 1000 nM
CCOC(=O)C(C)(C)c1nc(-c2cc(-c3ccon3)n(Cc3ccccc3F)n2)nnc1O [Compound 192]	> 1000 nM
Oc1nc(-c2cc(-c3ccon3)n(Cc3cccc(F)c3)n2)ncc1F [Compound 197]	100 to 1000 nM
CC(=O)c1cc(-c2nncc(N)n2)nn1Cc1ccccc1F [Compound 198]	> 1000 nM
CC(=O)c1cc(-c2nncc(O)n2)nn1Cc1ccccc1F [Compound 201]	> 1000 nM
